Columns and labels:
barnyardgrass [1] = experiment: Test A preemergence; type: in vivo, Echinochloa crus-galli
Summary of the method: (§1)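 Compounds in non-phytotoxic solvent with surfactant applied as soil spray preemergence, or postemergence to plants 2-10 cm at one- to two-leaf stage, in loam/sand. After approximately 10 days in greenhouse, injury rated visually versus untreated controls, 0 (no effect) to 100 (complete control).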

kochia [2] = experiment: Test A preemergence; type: in vivo, Kochia scoparia
Summary of the method: as §1

ragweed [3] = experiment: Test A preemergence; type: in vivo, Ambrosia elatior
Summary of the method: as §1

Italian ryegrass [4] = experiment: Test A preemergence; type: in vivo, Lolium multiflorum
Summary of the method: as §1

giant foxtail [5] = experiment: Test A preemergence; type: in vivo, Setaria faberii
Summary of the method: as §1

pigweed [6] = experiment: Test A preemergence; type: in vivo, Amaranthus retroflexus
Summary of the method: as §1

barnyardgrass [7] = experiment: Test A postemergence; type: in vivo, Echinochloa crus-galli; settings: for Barnyardgrass plant response rating: 125 g ai/ha
Summary of the method: as §1

kochia [8] = experiment: Test A postemergence; type: in vivo, Kochia scoparia; settings: for Kochia plant response rating: 125 g ai/ha
Summary of the method: as §1

ragweed [9] = experiment: Test A postemergence; type: in vivo, Ambrosia elatior; settings: for Ragweed plant response rating: 125 g ai/ha
Summary of the method: as §1

Italian ryegrass [10] = experiment: Test A postemergence; type: in vivo, Lolium multiflorum; settings: for Ryegrass, Italian plant response rating: 125 g ai/ha
Summary of the method: as §1

giant foxtail [11] = experiment: Test A postemergence; type: in vivo, Setaria faberii; settings: for Foxtail, Giant plant response rating: 125 g ai/ha
Summary of the method: as §1

pigweed [12] = experiment: Test A postemergence; type: in vivo, Amaranthus retroflexus; settings: for Pigweed plant response rating: 125 g ai/ha
Summary of the method: as §1

wheat = experiment: Test A postemergence; type: in vivo, Triticum aestivum; settings: for Wheat plant response rating: 125 g ai/ha
Summary of the method: as §1

corn = experiment: Test A postemergence; type: in vivo, Zea mays; settings: for Corn plant response rating: 125 g ai/ha
Summary of the method: as §1

blackgrass = experiment: Test A postemergence; type: in vivo, Alopecurus myosuroides; settings: for Blackgrass plant response rating: 125 g ai/ha
Summary of the method: as §1

galium = experiment: Test A postemergence; type: in vivo, Galium aparine; settings: for Galium plant response rating: 125 g ai/ha
Summary of the method: as §1

rice = experiment: Test B flooded paddy test; type: in vivo, Oryza sativa; settings: Flood, 250 g ai/ha; 0 to 100 scale where 0 is no effect and 100 is complete control
Summary of the method: (§2)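 Flooded to 3 cm at the 2-leaf stage, pots received compound through the paddy water and were kept at that depth under greenhouse conditions. After 13–15 days, effect was rated by eye relative to controls, 0 = none and 100 = complete control.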

sedge, umbrella = experiment: Test B flooded paddy test; type: in vivo, Cyperus difformis; settings: Flood, 250 g ai/ha; 0 to 100 scale where 0 is no effect and 100 is complete control
Summary of the method: as §2

Heteranthera limosa = experiment: Test B flooded paddy test; type: in vivo; settings: Flood, 250 g ai/ha; 0 to 100 scale where 0 is no effect and 100 is complete control
Summary of the method: as §2

barnyardgrass [13] = experiment: Test B flooded paddy test; type: in vivo, Echinochloa crus-galli; settings: Flood, 250 g ai/ha; 0 to 100 scale where 0 is no effect and 100 is complete control
Summary of the method: as §2

[14] = 31 g ai/ha, 0 to 100 scale where 0 is no effect and 100 is complete control, visual, approximately 10 days
[15] = 125 g ai/ha, 0 to 100 scale where 0 is no effect and 100 is complete control
[16] = 31 g ai/ha, 0 to 100 scale, 0 no effect, 100 complete control
[17] = 0 to 100 scale where 0 is no effect and 100 is complete control
[18] = 500 g ai/ha, 0 to 100 scale where 0 is no effect and 100 is complete control

SMILES | Plant response rating, Barnyardgrass (barnyardgrass [1]; [15]) | Plant response rating, Kochia (kochia [2]; [15]) | Plant response rating, Ragweed (ragweed [3]; [15]) | Plant response rating, Ryegrass, Italian (Italian ryegrass [4]; [15]) | Plant response rating, Foxtail, Giant (giant foxtail [5]; [15]) | Plant response rating, Pigweed (pigweed [6]; [15]) | Barnyardgrass plant response rating (barnyardgrass [7]; [17]) | Kochia plant response rating (kochia [8]; [17]) | Ragweed plant response rating (ragweed [9]; [17]) | Ryegrass, Italian plant response rating (Italian ryegrass [10]; [17]) | Foxtail, Giant plant response rating (giant foxtail [11]; [17]) | Pigweed plant response rating (pigweed [12]; [17]) | Wheat plant response rating (wheat; [17]) | Corn plant response rating (corn; [17]) | Blackgrass plant response rating (blackgrass; [17]) | Galium plant response rating (galium; [17]) | Plant response rating, Rice (rice) | Plant response rating, Sedge, Umbrella (sedge, umbrella) | Plant response rating, Ducksalad (Heteranthera limosa) | Plant response rating, Barnyardgrass (barnyardgrass [13]) | other results
CC(C)Oc1cnn(-c2c(C#N)cccc2Oc2ncc(F)cn2)c1 [Compound 158] | 70 | 70 | 80 | 50 | 90 | 70 | 80 | 80 | 80 | 50 | 70 | 50 | 0 | 30 | 60 | 100 | 40 | 0 | 50 | 0 | Plant response rating, Barnyardgrass (barnyardgrass [1]; [14]): 10; Plant response rating, Kochia (kochia [2]; [14]): 50; Plant response rating, Ragweed (ragweed [3]; [14]): 40; Plant response rating, Ryegrass, Italian (Italian ryegrass [4]; [14]): 30; Plant response rating, Foxtail, Giant (giant foxtail [5]; [14]): 60; Plant response rating, Pigweed (pigweed [6]; [14]): 50; Plant response rating, Barnyardgrass (barnyardgrass [7]; [16]): 20; Plant response rating, Kochia (kochia [8]; [16]): 60; Plant response rating, Ragweed (ragweed [9]; [16]): 60; Plant response rating, Ryegrass, Italian (Italian ryegrass [10]; [16]): 20; Plant response rating, Foxtail, Giant (giant foxtail [11]; [16]): 20; Plant response rating, Pigweed (pigweed [12]; [16]): 40; Plant response rating, Wheat (wheat; [16]): 0; Plant response rating, Corn (corn; [16]): 0; Plant response rating, Blackgrass (blackgrass; [16]): 50; Plant response rating, Galium (galium; [16]): 60
Fc1cnc(Oc2cccc(F)c2-n2cc(OCC(F)(F)F)cn2)nc1 [Compound 126] | 80 | 90 | 20 | 0 | 100 | 100 | 40 | 100 | 50 | 10 | 50 | 80 | 10 | 20 | 20 | 60 | 0 | 20 | 65 | 0 | Barnyardgrass plant response rating (0 to 100 scale) (barnyardgrass [1]; 31 g ai/ha): 10; Kochia plant response rating (0 to 100 scale) (kochia [2]; 31 g ai/ha): 40; Ragweed plant response rating (0 to 100 scale) (ragweed [3]; 31 g ai/ha): 0; Ryegrass, Italian plant response rating (0 to 100 scale) (Italian ryegrass [4]; 31 g ai/ha): 0; Foxtail, Giant plant response rating (0 to 100 scale) (giant foxtail [5]; 31 g ai/ha): 50; Pigweed plant response rating (0 to 100 scale) (pigweed [6]; 31 g ai/ha): 80; Plant response rating, Barnyardgrass (barnyardgrass [7]; [16]): 10; Plant response rating, Kochia (kochia [8]; [16]): 40; Plant response rating, Ragweed (ragweed [9]; [16]): 10; Plant response rating, Ryegrass, Italian (Italian ryegrass [10]; [16]): 0; Plant response rating, Foxtail, Giant (giant foxtail [11]; [16]): 10; Plant response rating, Pigweed (pigweed [12]; [16]): 50; Plant response rating, Wheat (wheat; [16]): 0; Plant response rating, Corn (corn; [16]): 0; Plant response rating, Blackgrass (blackgrass; [16]): 10; Plant response rating, Galium (galium; [16]): 20
COc1cnn(-c2c(F)cccc2Oc2ncc(Cl)cn2)c1 [Compound 121] | 30 | 60 | 10 | 0 | 50 | 90 | 20 | 40 | 40 | 0 | 30 | 40 | 0 | 10 | 30 | 30 | 0 | 0 | 45 | 20 | Barnyardgrass plant response rating (0 to 100 scale) (barnyardgrass [1]; 31 g ai/ha): 0; Kochia plant response rating (0 to 100 scale) (kochia [2]; 31 g ai/ha): 0; Ragweed plant response rating (0 to 100 scale) (ragweed [3]; 31 g ai/ha): 0; Ryegrass, Italian plant response rating (0 to 100 scale) (Italian ryegrass [4]; 31 g ai/ha): 0; Foxtail, Giant plant response rating (0 to 100 scale) (giant foxtail [5]; 31 g ai/ha): 10; Pigweed plant response rating (0 to 100 scale) (pigweed [6]; 31 g ai/ha): 60; Plant response rating, Barnyardgrass (barnyardgrass [7]; [16]): 0; Plant response rating, Kochia (kochia [8]; [16]): 20; Plant response rating, Ragweed (ragweed [9]; [16]): 10; Plant response rating, Ryegrass, Italian (Italian ryegrass [10]; [16]): 0; Plant response rating, Foxtail, Giant (giant foxtail [11]; [16]): 0; Plant response rating, Pigweed (pigweed [12]; [16]): 10; Plant response rating, Wheat (wheat; [16]): 0; Plant response rating, Corn (corn; [16]): 0; Plant response rating, Blackgrass (blackgrass; [16]): 10; Plant response rating, Galium (galium; [16]): 10
CCCc1cnc(Oc2cccc(C#N)c2-n2cc(Br)cn2)nc1 [Compound 131] | 0 | 0 | 0 | 0 | 0 | 0 | 0 | 0 | 0 | 0 | 0 | 0 | 0 | 0 | 0 | 0 | 0 | 0 | 0 | 0 | Barnyardgrass plant response rating (barnyardgrass [1]; [18]): 0; Kochia plant response rating (kochia [2]; [18]): 0; Ragweed plant response rating (ragweed [3]; [18]): 0; Ryegrass, Italian plant response rating (Italian ryegrass [4]; [18]): 0; Foxtail, Giant plant response rating (giant foxtail [5]; [18]): 0; Pigweed plant response rating (pigweed [6]; [18]): 0; Plant response rating, Barnyardgrass (barnyardgrass [7]; [18]): 0; Plant response rating, Kochia (kochia [8]; [18]): 0; Plant response rating, Ragweed (ragweed [9]; [18]): 0; Plant response rating, Ryegrass, Italian (Italian ryegrass [10]; [18]): 0; Plant response rating, Foxtail, Giant (giant foxtail [11]; [18]): 0; Plant response rating, Pigweed (pigweed [12]; [18]): 0; Plant response rating, Wheat (wheat; [18]): 0; Plant response rating, Corn (corn; [18]): 0; Plant response rating, Blackgrass (blackgrass; [18]): 0; Plant response rating, Galium (galium; [18]): 0
FC(F)(F)COc1cnn(-c2c(Br)cccc2Oc2ncc(Cl)cn2)c1 [Compound 128] | 70 | 70 | 0 | 10 | 100 | 100 | 50 | 80 | 20 | 30 | 60 | 100 | 10 | 30 | 40 | 80 | 0 | 85 | 85 | 0 | Plant response rating, Barnyardgrass (barnyardgrass [1]; [14]): 10; Plant response rating, Kochia (kochia [2]; [14]): 0; Plant response rating, Ragweed (ragweed [3]; [14]): 0; Plant response rating, Ryegrass, Italian (Italian ryegrass [4]; [14]): 0; Plant response rating, Foxtail, Giant (giant foxtail [5]; [14]): 60; Plant response rating, Pigweed (pigweed [6]; [14]): 100; Plant response rating, Barnyardgrass (barnyardgrass [7]; [16]): 10; Plant response rating, Kochia (kochia [8]; [16]): 50; Plant response rating, Ragweed (ragweed [9]; [16]): 0; Plant response rating, Ryegrass, Italian (Italian ryegrass [10]; [16]): 0; Plant response rating, Foxtail, Giant (giant foxtail [11]; [16]): 20; Plant response rating, Pigweed (pigweed [12]; [16]): 80; Plant response rating, Wheat (wheat; [16]): 0; Plant response rating, Corn (corn; [16]): 0; Plant response rating, Blackgrass (blackgrass; [16]): 30; Plant response rating, Galium (galium; [16]): 50
